These results are taken from PMC4053365 (PLoS ONE, 2014).

One may read the melting point as the temperature, or range, at which the solid turns liquid. Usually EC50 stands for the concentration at which the effect is half-maximal. By Emax is commonly meant the maximal effect, on the per cent scale that the assay sets. What is called Ki is the dissociation constant of the complex between target and ligand, obtained from inhibition or displacement. Broadly, the ED50 is the midpoint of the dose-response relation.

Structures can show the parent of a compound that is named as a salt.

The target of data set [1] is T1, human DOP receptor (Homo sapiens, UniProt P41143). The experiment in a line: biochemical. More on the design: expressed in transfected cells; host or cells: CHO (CHOhDOP) cell membranes.
T1 sequence (P41143 whole entry): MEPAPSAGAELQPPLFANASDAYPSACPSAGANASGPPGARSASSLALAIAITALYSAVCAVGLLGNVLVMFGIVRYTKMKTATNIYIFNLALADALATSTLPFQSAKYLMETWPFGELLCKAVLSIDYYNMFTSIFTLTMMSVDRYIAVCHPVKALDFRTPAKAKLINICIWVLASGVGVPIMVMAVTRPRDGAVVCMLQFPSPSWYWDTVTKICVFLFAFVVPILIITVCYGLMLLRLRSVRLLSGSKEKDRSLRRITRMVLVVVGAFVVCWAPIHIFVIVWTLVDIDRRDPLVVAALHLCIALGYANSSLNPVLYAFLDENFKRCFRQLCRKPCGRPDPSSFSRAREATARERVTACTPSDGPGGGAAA
Data set [2] concerns the target T2, human KOP receptor (Homo sapiens, UniProt P41145). The data set can be described thus: biochemical. More on the design: expressed in transfected cells; host or cells: CHO (CHOhKOP) cell membranes.
The target of data set [3] is T3, KOP receptor (Cavia porcellus, UniProt P41144).
T3 construct: Membranes were prepared from Sprague-Dawley rat or guinea pig brains; from tissue; host or cells: guinea pig brain membranes
T3 sequence (P41144 whole entry): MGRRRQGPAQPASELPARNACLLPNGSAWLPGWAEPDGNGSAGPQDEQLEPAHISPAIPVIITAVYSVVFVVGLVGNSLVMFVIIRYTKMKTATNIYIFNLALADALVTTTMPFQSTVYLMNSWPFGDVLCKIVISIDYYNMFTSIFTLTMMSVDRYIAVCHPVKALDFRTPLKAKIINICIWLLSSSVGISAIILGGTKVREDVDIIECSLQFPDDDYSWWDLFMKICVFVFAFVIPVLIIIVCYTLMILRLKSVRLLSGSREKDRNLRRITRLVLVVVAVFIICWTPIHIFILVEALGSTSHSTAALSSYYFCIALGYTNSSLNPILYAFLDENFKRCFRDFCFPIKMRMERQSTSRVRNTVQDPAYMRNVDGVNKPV
The data set can be described thus: Radioligand binding assay, [3H]U69,593, guinea pig brain membranes.

In data set [4] the test system is mice. The experiment in a line: Hot-plate test (acute thermal nociception). The format is in vivo. Conditions: s.c.; for ED50: Mus musculus, sc, 0.5 h, 30 min after administration, read-out: ED50 (95% CL) Hot-plate test. (In general: Thermal pain tests record how soon the animal reacts.)
The target in data set [5] is T2, human KOP receptor. The class given is cell-based. More on the design: expressed in transfected cells; host or cells: CHO (CHOhKOP) stably expressing Gαqi5, whole cells.
In data set [6] the target is T4, DOP receptor (Rattus norvegicus, UniProt P33533).
T4 construct: Membranes were prepared from Sprague-Dawley rat or guinea pig brains; from tissue; host or cells: Sprague-Dawley rat brain membranes
T4 sequence (P33533 whole entry): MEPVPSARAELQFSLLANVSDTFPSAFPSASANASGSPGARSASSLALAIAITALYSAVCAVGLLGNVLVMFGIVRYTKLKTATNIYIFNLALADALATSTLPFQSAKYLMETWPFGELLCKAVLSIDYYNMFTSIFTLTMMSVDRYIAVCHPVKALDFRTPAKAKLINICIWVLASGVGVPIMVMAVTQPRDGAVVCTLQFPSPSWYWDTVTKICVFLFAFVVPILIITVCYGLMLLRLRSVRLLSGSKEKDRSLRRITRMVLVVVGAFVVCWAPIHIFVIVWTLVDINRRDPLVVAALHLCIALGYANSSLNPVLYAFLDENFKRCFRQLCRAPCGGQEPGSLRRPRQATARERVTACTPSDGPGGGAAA
The experiment in a line: Radioligand binding assay, [3H][Ile5,6]deltorphin II, rat brain membranes.

For data set [7], the system named is mice. The data set can be described thus: Tail-flick test (acute thermal nociception). The class given is in vivo. The following applies: s.c.; for ED50: Mus musculus, sc, 0.5 h, 30 min after administration, read-out: ED50 (95% CL) Tail-flick test.
Data set [8] concerns mice. The experiment in a line: Observation of locomotor activity and sedation during antinociception testing. The format is in vivo. The following applies: s.c., any tested dose, about 3- to 4-fold the analgesic ED50 dose.
In data set [9] the target is T5, MOP receptor (Rattus norvegicus, UniProt P33535).
T5 construct: Membranes were prepared from Sprague-Dawley rat or guinea pig brains; from tissue; host or cells: Sprague-Dawley rat brain membranes
T5 sequence (P33535 whole entry): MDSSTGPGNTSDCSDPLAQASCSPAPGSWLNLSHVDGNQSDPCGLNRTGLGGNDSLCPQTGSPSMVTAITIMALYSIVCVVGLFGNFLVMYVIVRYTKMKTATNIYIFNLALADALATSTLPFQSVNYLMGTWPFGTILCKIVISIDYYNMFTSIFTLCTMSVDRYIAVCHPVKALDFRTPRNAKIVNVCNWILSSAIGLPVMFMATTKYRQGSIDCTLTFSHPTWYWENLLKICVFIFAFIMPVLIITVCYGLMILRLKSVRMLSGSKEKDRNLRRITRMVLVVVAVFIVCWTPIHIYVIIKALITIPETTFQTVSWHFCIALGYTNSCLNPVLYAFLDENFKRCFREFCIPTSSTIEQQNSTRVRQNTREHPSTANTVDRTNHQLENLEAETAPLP
The experiment in a line: Radioligand binding assay, [3H]DAMGO, rat brain membranes. Conditions: for Selectivity ratio DOP/MOP / Selectivity ratio KOP/MOP: ratio of Ki values.

Data set [10] has as its target T6, human MOP receptor (Homo sapiens, UniProt P35372). The experiment in a line: biochemical. The arrangement: expressed in transfected cells; host or cells: CHO (CHOhMOP) cell membranes. The format is biochemical.
The target of data set [11] is T6, human MOP receptor. The data set can be described thus: cell-based. The class given is cell-based. More on the design: expressed in transfected cells; host or cells: CHO (CHOhMOP) stably expressing Gαqi5, whole cells.
Data set [12] concerns the target T1, human DOP receptor. The format is cell-based. The following applies: CHO cells co-expressing human DOP and GαqG66Di5; inactive = inactive up to 10 µM; crc = concentration response curve. More on the design: expressed in transfected cells; host or cells: CHO (CHOhDOP) stably expressing GαqG66Di5, whole cells.
Data set [13] addresses MOP. The arrangement: method as in earlier work. Conditions: read-out: Ki MOP (previously reported); cited from earlier work.
Data set [14] concerns the target KOP. The arrangement: method as in earlier work. Conditions: read-out: Ki KOP (previously reported); cited from earlier work.
The target of data set [15] is DOP. More on the design: method as in earlier work. Conditions: read-out: Ki DOP (previously reported); cited from earlier work.
Data set [16] has as its system rodents. The following applies: fraction or fold of morphine potency; cited from earlier work.

T6 sequence (P35372 whole entry): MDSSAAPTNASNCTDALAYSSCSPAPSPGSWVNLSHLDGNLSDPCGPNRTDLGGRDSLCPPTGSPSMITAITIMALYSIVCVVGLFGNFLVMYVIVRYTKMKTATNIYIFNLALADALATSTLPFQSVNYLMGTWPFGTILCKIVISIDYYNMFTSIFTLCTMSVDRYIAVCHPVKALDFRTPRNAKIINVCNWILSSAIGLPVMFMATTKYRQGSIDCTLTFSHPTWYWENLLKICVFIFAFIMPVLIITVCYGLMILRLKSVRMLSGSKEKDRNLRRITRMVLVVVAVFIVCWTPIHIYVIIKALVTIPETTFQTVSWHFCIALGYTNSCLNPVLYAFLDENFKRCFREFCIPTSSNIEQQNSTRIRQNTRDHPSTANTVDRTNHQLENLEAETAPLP
T2 sequence (P41145 whole entry): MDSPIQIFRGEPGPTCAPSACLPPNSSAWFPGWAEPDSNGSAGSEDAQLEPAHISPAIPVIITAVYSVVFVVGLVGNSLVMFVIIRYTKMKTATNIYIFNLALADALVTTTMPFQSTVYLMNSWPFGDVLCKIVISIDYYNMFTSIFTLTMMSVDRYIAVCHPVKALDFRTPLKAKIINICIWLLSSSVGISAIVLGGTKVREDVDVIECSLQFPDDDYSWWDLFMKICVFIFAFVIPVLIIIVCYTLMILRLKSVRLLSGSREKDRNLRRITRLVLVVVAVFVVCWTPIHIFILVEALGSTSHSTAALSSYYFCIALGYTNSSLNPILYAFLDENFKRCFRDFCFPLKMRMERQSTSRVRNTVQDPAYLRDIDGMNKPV

`O=C1CC[C@@]2(O)[C@H]3Cc4ccc(O)c5c4[C@@]2(CCN3CCc2ccccc2)[C@H]1O5` (as salt: HCl) [Compound 6, N-phenethylnoroxymorphone] displayed a melting point of 85 to 90 °C.

The molecule `Oc1ccc2c3c1O[C@H]1[C@@H](O)C=C[C@H]4[C@@H](C2)N(CCc2ccccc2)CC[C@@]341` [Compound 1, N-phenethylnormorphine] displayed a melting point of 255 to 257 °C. In addition, in data set [1], the EC50 was 712 ± 86 nM. In addition, in data set [1] (read-out: [35S]GTPγS functional assay DOP Emax), the Emax was 138 ± 17%. In data set [2], this molecule came in with an EC50 of 1050 nM. For the same molecule, in [2] (read-out: [35S]GTPγS functional assay KOP Emax), the maximal effect (Emax) was found to be 19 ± 2%. This molecule had an inhibition constant Ki in data set [3] of 107 ± 18 nM. Besides, the ED50 in data set [4] was found to be 0.11 mg/kg. The “Hot-plate test, more effective than morphine” value in data set [4] (vs morphine) is 22 fold. In addition, in [5], the “Calcium mobilization assay KOP EC50” value is “inactive ^d” and the “Calcium mobilization assay KOP Emax” value is “inactive ^d”. For the same molecule, the affinity in data set [6], expressed as Ki, was 37 ± 5.5 nM. Moreover, the median effective dose (ED50) in [7] is 0.11 mg/kg. In [7] (vs morphine), the “Tail-flick test, more effective than morphine” value came to 28 fold. Besides, the “Locomotor activity and sedative effects” value in data set [8] was “no major alterations in locomotor activity and no sedative effects”. For the same molecule, in data set [9], affinity was put at a Ki of 0.93 ± 0.14 nM, the “Selectivity ratio DOP/MOP” value is listed as 40 and the “Selectivity ratio KOP/MOP” value was 115. The “MOP receptor affinity greater than morphine” value in [9] (vs morphine) is recorded as 7 fold. In [10], the response was half-maximal at 10.3 ± 0.9 nM (EC50), the “MOP agonist potency in [35S]GTPγS more potent than DAMGO” value is on record as 2 fold and the “MOP agonist potency in [35S]GTPγS more potent than morphine” value was “about 3 fold”. The Emax in [10] (read-out: [35S]GTPγS functional assay MOP Emax) worked out at 113 ± 8%. Moreover, in data set [11], the “Calcium mobilization MOP more active than 14-hydroxy analogue 4” value is reported as “about 3 fold”, the “Calcium mobilization MOP more potent than morphine” value was “about 3 fold” and the EC50 worked out at 48.8 ± 14 nM. Besides, the Emax in data set [11] (read-out: Calcium mobilization assay MOP Emax) was found to be 70 ± 4%. Also, the “Calcium mobilization assay DOP EC50” value in [12] was “crc incomplete ^e”.

As to `Oc1ccc2c3c1O[C@H]1[C@@H](O)C=C[C@H]4[C@@H](C2)N(CCCc2ccccc2)CC[C@@]341` [Compound 2, N-phenylpropylnormorphine], the Ki in [3] was 565 ± 24 nM. Moreover, in [6], the Ki was 869 ± 171 nM. Further, in [9], the Ki turned out to be 79.5 ± 1.1 nM, the “Selectivity ratio DOP/MOP” value is 11 and the “Selectivity ratio KOP/MOP” value worked out at 7.

Turning to `Oc1ccc2c3c1O[C@H]1[C@@H](O)C=C[C@@]4(O)[C@@H](C2)N(CCc2ccccc2)CC[C@]314` [Compound 4, N-Phenethyl-14-hydroxynormorphine], the inhibition constant (Ki) was 513 ± 66 nM in data set [3], 163 ± 17 nM in data set [6] and 4.6 ± 0.01 nM in [9]. For the same molecule, the “Calcium mobilization assay KOP EC50” value in data set [5] is “inactive ^d”. In addition, the “Calcium mobilization assay KOP Emax” value in data set [5] was “inactive ^d”. Also, the median effective dose (ED50) in data set [7] turned out to be 1.14 mg/kg. The “Locomotor activity and sedative effects” value in [8] was “no major alterations in locomotor activity and no sedative effects”. For the same molecule, in data set [9] (vs compound 1), the “MOP receptor affinity lower than 14-unsubstituted counterpart 1” value is “about 5 fold”. Besides, the “MOP receptor binding affinity increase over 14-hydroxymorphine (3)” value in data set [9] (vs compound 3) is recorded as “about 4 fold”. The “Calcium mobilization assay DOP EC50” value in [12] was “inactive ^d”.

`O=C1CC[C@@]2(O)[C@H]3Cc4ccc(O)c5c4[C@@]2(CCN3Cc2ccccc2)[C@H]1O5` [Compound 5, N-Benzylnoroxymorphone] had a melting point of 235 to 237 °C. Also, in data set [13], the inhibitory constant (Ki) was […]. Moreover, in data set [14], the inhibitory constant (Ki) was […]. Further, the Ki in [15] was […].

With `O=C1CC[C@@]2(O)[C@H]3Cc4ccc(O)c5c4[C@@]2(CCN3CCc2ccccc2)[C@H]1O5` [Compound 6, N-phenethylnoroxymorphone], the ED50 in [4] was 0.18 mg/kg; in data set [7], 0.15 mg/kg. Further, the “Antinociceptive potency higher than 6-hydroxy counterpart 4” value in data set [4] (hot-plate and tail-flick tests, vs compound 4) is “up to 8 fold”. Moreover, in [4] (hot-plate and tail-flick tests, vs oxymorphone), the “Antinociceptive potency higher than oxymorphone” value is “about 2 fold”. For the same molecule, the “Locomotor activity and sedative effects” value in data set [8] was “no major alterations in locomotor activity and no sedative effects”.

Take `Oc1ccc2c3c1OC1C(O)C=CC4C(C2)N(Cc2ccccc2)CCC341` (centres unmarked) [N-benzylnormorphine]: in data set [16], the “Analgesic potency relative to morphine” value is “less than one-tenth”.

Take `CN1CC[C@]23c4c5ccc(O)c4O[C@H]2C(=O)CC[C@@]3(O)[C@H]1C5` [Oxymorphone, reference compound]: the ED50 was 0.38 mg/kg in data set [4] and 0.35 mg/kg in [7].

Regarding N-cyclohexylethylnormorphine, in data set [16], the “Analgesic potency relative to morphine” value is recorded as “one-third”.
